Results published in ChEMBL document CHEMBL1201862, “PubChem BioAssay data set” (2004).
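Step 1: Grow cells in 96-well plates. Step 2: Expose to compound for 48 hours at 5 concentrations. Step 3: Interpolate endpoints linearly; if unreached, use highest concentration. Abbreviation: GI50, concentration required for 50% inhibition of growth.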 The source made the active and inactive calls. No stated cut-off is given here; in the data, active = GI50 up to about 1.1 µM and inactive = higher.

Columns and labels:
Test in all cases: NCI tumour cell line growth inhibition, 48 h
NCI-H23 = test system: NCI-H23
HL-60 = test system: HL-60
K562 = test system: K562
U-251 = test system: U-251
SNB-78 = test system: SNB-78
SR = test system: SR
HOP-62 = test system: HOP-62
SW-620 = test system: SW-620
UO-31 = test system: UO-31
DMS-114 = test system: DMS-114
XF498 = test system: XF498
IGROV-1 = test system: IGROV-1
NCI-H460 = test system: NCI-H460
CCRF-CEM = test system: CCRF-CEM
SK-MEL-28 = test system: SK-MEL-28
NCI-H522 = test system: NCI-H522
DLD-1 = test system: DLD-1
OVCAR-4 = test system: OVCAR-4
M19-MEL = test system: M19-MEL
KM12 = test system: KM12
RPMI-8226 = test system: RPMI-8226
UACC-62 = test system: UACC-62
SK-OV-3 = test system: SK-OV-3
UACC-257 = test system: UACC-257
SF-268 = test system: SF-268
SNB-19 = test system: SNB-19
HCT-15 = test system: HCT-15
A549 = test system: A549
MOLT-4 = test system: MOLT-4
LOX IMVI = test system: LOX IMVI
HOP-18 = test system: HOP-18
HOP-92 = test system: HOP-92
ACHN = test system: ACHN
RXF 393 = test system: RXF 393
SF-539 = test system: SF-539
SK-MEL-2 = test system: SK-MEL-2
OVCAR-8 = test system: OVCAR-8
HCT-116 = test system: HCT-116
CAKI-1 = test system: CAKI-1
Malme-3M = test system: Malme-3M
OVCAR-3 = test system: OVCAR-3
M14 = test system: M14
LXFL 529 = test system: LXFL 529
SF-295 = test system: SF-295
EKVX = test system: EKVX
SK-MEL-5 = test system: SK-MEL-5
SN12C = test system: SN12C
786-0 = test system: 786-0
TK-10 = test system: TK-10
HCC 2998 = test system: HCC 2998
HT-29 = test system: HT-29
KM-20L2 = test system: KM-20L2
SNB-75 = test system: SNB-75
OVCAR-5 = test system: OVCAR-5
COLO 205 = test system: COLO 205
DMS-273 = test system: DMS-273

Measured: GI50

CC(=O)/C(=C\c1ccco1)C(=O)Nc1ccccc1
> 100 µM: HCT-15
inactive: NCI-H23 > 100 µM | HL-60 > 100 µM | K562 > 100 µM | U-251 > 100 µM | SNB-78 > 100 µM | SR > 100 µM | HOP-62 > 100 µM | SW-620 > 100 µM | UO-31 > 100 µM | DMS-114 > 100 µM | XF498 > 100 µM | IGROV-1 > 100 µM | NCI-H460 > 100 µM | CCRF-CEM > 100 µM | SK-MEL-28 > 100 µM | NCI-H522 > 100 µM | DLD-1 > 100 µM | OVCAR-4 > 100 µM | M19-MEL > 100 µM | KM12 > 100 µM | RPMI-8226 > 100 µM | UACC-62 > 100 µM | SK-OV-3 > 100 µM | UACC-257 > 100 µM | SF-268 > 100 µM | SNB-19 > 100 µM | A549 > 100 µM | MOLT-4 > 100 µM | LOX IMVI > 100 µM | HOP-18 > 100 µM | HOP-92 > 100 µM | ACHN > 100 µM | RXF 393 > 100 µM | SF-539 > 100 µM | SK-MEL-2 > 100 µM | OVCAR-8 > 100 µM | HCT-116 > 100 µM | CAKI-1 > 100 µM | Malme-3M > 100 µM | OVCAR-3 > 100 µM | M14 > 100 µM | LXFL 529 > 100 µM | SF-295 > 100 µM | EKVX > 100 µM | SK-MEL-5 > 100 µM | SN12C > 100 µM | 786-0 > 100 µM | TK-10 > 100 µM | HCC 2998 > 100 µM | HT-29 > 100 µM

CC(C)(C)C1=Nc2c(Br)cc(C(C)(C)C)cc2C(C(F)(F)F)(C(F)(F)F)O1
43.7 µM: HCT-15
inactive: NCI-H23 > 100 µM | HL-60 22.2 µM | K562 39.4 µM | U-251 22.9 µM | KM-20L2 > 100 µM | SNB-78 > 100 µM | SR 54 µM | HOP-62 > 100 µM | SW-620 46.7 µM | UO-31 47.2 µM | DMS-114 31.6 µM | XF498 19 µM | IGROV-1 65.5 µM | NCI-H460 > 100 µM | CCRF-CEM 32.7 µM | SK-MEL-28 32.7 µM | NCI-H522 31.1 µM | DLD-1 > 100 µM | OVCAR-4 > 100 µM | SNB-75 > 100 µM | M19-MEL 72.6 µM | KM12 > 100 µM | RPMI-8226 25.3 µM | UACC-62 > 100 µM | SK-OV-3 > 100 µM | UACC-257 48 µM | OVCAR-5 > 100 µM | SF-268 > 10 µM | COLO 205 > 100 µM | DMS-273 46 µM | SNB-19 70.8 µM | A549 43.4 µM | MOLT-4 45.8 µM | LOX IMVI 16.2 µM | ACHN 45 µM | RXF 393 22.5 µM | SF-539 37.8 µM | SK-MEL-2 > 100 µM | OVCAR-8 80.5 µM | HCT-116 41.2 µM | Malme-3M > 100 µM | OVCAR-3 17 µM | M14 > 100 µM | LXFL 529 46.7 µM | SF-295 54.8 µM | EKVX > 100 µM | SK-MEL-5 83.6 µM | SN12C 38.4 µM | 786-0 35.3 µM | TK-10 > 100 µM | HCC 2998 29.9 µM | HT-29 57.9 µM
